Test results: patent US12115152B2, “Pan-RAF kinase inhibitor and use thereof” (HEFEI INSTITUTES OF PHYSICAL SCIENCE, CHINESE ACADEMY OF …, priority 2019, dated 2024)

Key:
Assay type in all cases: cell-based
[1] = Effect on proliferation of cells, Cell Titer-Glo, 72 hours; settings: Mus musculus, BaF3 cells
Protocol: The compounds of the present invention were tested for their effect on growth of cancer cells (Table 2), to further evaluate the compounds herein for their inhibitory effect on proliferation of cancer cells and their selectivity in inhibiting proliferation of cancer cells. […]
(§1) In the example, solutions of the test compound in DMSO at different concentrations (0.000508 μM, 0.00152 μM, 0.00457 μM, 0.0137 μM, 0.0411 μM, 0.123 μM, 0.370 μM, 1.11 μM, 3.33 μM, 10 μM) was added to the above cells respectively. The cells were incubated for 72 hours. The number of viable cells was detected with a Cell Titer-Glo (Promega, USA) Cell Viability Assay Kit by quantifying the ATP in viable cells. The values of GI50 (unit) of the compounds of the present invention against each of the test cells were determined.

[2] = tested on: colorectal cancer cell COLO205 (expressing BRAF-V600E mutant kinase); test: Effect on proliferation of cancer cells, Cell Titer-Glo, 72 hours; settings: Homo sapiens, COLO 205
Protocol: (§2) The compounds of the present invention were tested for their effect on growth of cancer cells (Table 2), to further evaluate the compounds herein for their inhibitory effect on proliferation of cancer cells and their selectivity in inhibiting proliferation of cancer cells.
(§3) The cells were incubated for 72 hours. The number of viable cells was detected with a Cell Titer-Glo (Promega, USA) Cell Viability Assay Kit by quantifying the ATP in viable cells. The values of GI50 (unit) of the compounds of the present invention against each of the test cells were determined.

[3] = tested on: melanoma cell A375 (expressing BRAF-V600E mutant kinase); test: as above; settings: Homo sapiens, A-375
Protocol: as §2, §3

[4] = tested on: mouse BaF3-FL-BRAF-V600E (stably expressing full-length BRAF-V600E mutant kinase); test: as above
Protocol: as §2, §3

[5] = tested on: human acute leukemia cell NB4 (expressing KRAS-A18D mutant kinase); test: as above; settings: NB-4
Protocol: as §2
(§4) The above-mentioned BaF3-FL-BRAF-V600E mutant cell line was constructed by the method as follows. The sequence of human full-length BRAF-V600E mutant kinase region was amplified by PCR, inserted into a MSCV-Puro vector (purchased from Clontech), and stably transfected into mouse BaF3 cells by the retroviral method, and the growth factor IL-3 was removed. Eventually, a cell line dependent on a full-length BRAF-V600E protein having various mutation transferred was obtained.
as §1

[6] = tested on: human acute leukemia cell OCI-AML-3 (expressing NRAS-Q61L mutant kinase); test: as above; settings: OCI-AML-3 cells
Protocol: as §2, §4, §1

| SMILES | GI50 [2] [nM] | GI50 [3] [nM] | GI50 [4] [nM] | GI50 [5] [nM] | GI50 [6] [nM] | GI50 [1] [nM] |
| --- | --- | --- | --- | --- | --- | --- |
| Cc1ccc(NC(=O)c2cccc(C(C)(C)C#N)c2)cc1-n1cc(-c2cncc(OCCCN3CCOCC3)c2)cn1 [Example 47, 3-(2-cyanoprop-2-yl)-N-(4-methyl-3-(4-(5-(3-morpholinopropoxy)pyrid-3-yl)-1H-pyrazol-1-yl)phenyl)benzamide] | 15 | 17 | 1.3 | – | – | 600 |
| Cc1ccc(NC(=O)c2cccc(C(F)(F)F)c2)cc1-n1cc(-c2cncc(OCCCN3CCOCC3)c2)cn1 [Example 48, N-(4-methyl-3-(4-(5-(3-morpholinopropoxy)pyrid-3-yl)-1H-pyrazol-1-yl)phenyl)-3-(trifluoromethyl)benzamide] | 32 | 14 | 4.1 | – | – | 520 |
| Cc1ccc(NC(=O)Cc2cccc(C(F)(F)F)c2)cc1-n1cc(-c2cncc(OCCCN3CCOCC3)c2)cn1 [Example 49, N-(4-methyl-3-(4-(5-(3-morpholinopropoxy)pyrid-3-yl)-1H-pyrazol-1-yl)phenyl)-2-(3-(trifluoromethyl)phenyl)acetamide] | 52 | 41 | 7.2 | – | – | 500 |
| Cc1ccc(NC(=O)c2cccc(C(F)(F)F)c2)cc1-n1cc(-c2cnccc2OC2CCOC2)cn1 (stereo not drawn) [Example 69, N-(4-methyl-3-(4-(4-((tetrahydrofuran-3-yl)oxy)pyrid-3-yl)-1H-pyrazol-1-yl)phenyl)-3-(trifluoromethyl)benzamide] | 61 | 35 | 16 | – | – | 1200 |
| Cc1ccc(NC(=O)c2cccc(C(F)(F)F)c2)cc1-n1cc(-c2cnccc2OC2COC2)cn1 [Example 82, N-(4-methyl-3-(4-(4-(oxetan-3-yloxy)pyrid-3-yl)-1H-pyrazol-1-yl)phenyl)-3-(trifluoromethyl)benzamide] | 83 | 97 | 4 | – | – | 3200 |
| Cc1ccc(NC(=O)c2cccc(C(C)(C)C#N)c2)cc1-n1cc(-c2cnccc2OCC2COC2)cn1 [Example 87, 3-(2-cyanoprop-2-yl)-N-(4-methyl-3-(4-(4-(oxetan-3-ylmethoxy)pyrid-3-yl)-1H-pyrazol-1-yl)phenyl)benzamide] | 65 | 36 | < 0.3 | – | – | 2500 |
| Cc1ccc(NC(=O)c2cccc(C(C)(C)C#N)c2)cc1-n1cc(-c2cnccc2OCCCO)cn1 [Example 161, 3-(2-cyanoprop-2-yl)-N-(3-(4-(4-(3-hydorxypropoxy)pyrid-3-yl)-1H-pyrazol-1-yl)-4-methylphenyl)benzamide] | 55 | 14 | 2.3 | 95 | 12 | 3600 |
| Cc1ccc(NC(=O)c2cccc(Cl)c2)cc1-n1cc(-c2cccnc2)cn1 [compound 2, 3-chloro-N-(4-methyl-3-(4-(pyrid-3-yl)-1H-pyrazol-1-yl)phenyl)benzamide, reference compound] | 3300 | 1600 | 240 | – | – | 9300 |

Further compounds by falling GI50 [2], results first:

| GI50 [2] [nM] | GI50 [3] [nM] | GI50 [4] [nM] | GI50 [5] [nM] | GI50 [6] [nM] | SMILES | GI50 [1] [nM] |
| --- | --- | --- | --- | --- | --- | --- |
| 230 | 71 | 18 | – | – | Cc1ccc(NC(=O)c2cccc(C(F)(F)F)c2)cc1-n1cc(-c2cncc(OCC3CCOC3)c2)cn1 (stereo not drawn) [Example 66, N-(4-methyl-3-(4-(5-((tetrahydrofuran-3-yl)methoxy)pyrid-3-yl)-1H-pyrazol-1-yl)phenyl)-3-(trifluoromethyl)benzamide] | 3000 |
| 150 | 86 | 12 | – | – | Cc1ccc(NC(=O)c2ccc(C)c(C(F)(F)F)c2)cc1-n1cc(-c2cncc(-c3ccncc3)c2)cn1 [Example 7, N-(3-(4-([3,4′-bipyridyl]-5-yl)-1H-pyrazol-1-yl)-4-methylphenyl)-4-methyl-3-(trifluoromethyl)benzamide] | 2400 |
| 130 | 99 | < 0.3 | – | – | Cc1ccc(NC(=O)c2cccc(C(C)(C)C#N)c2)cc1-n1cc(-c2cncc(OC3COC3)c2)cn1 [Example 84, 3-(2-cyanoprop-2-yl)-N-(4-methyl-3-(4-(5-(oxetan-3-yloxy)pyrid-3-yl)-1H-pyrazol-1-yl)phenyl)benzamide] | 8600 |
| 119 | 77 | < 0.3 | – | – | Cc1ccc(NC(=O)c2cccc(C(C)(C)C#N)c2)cc1-n1cc(-c2cnccc2OC2CCOCC2)cn1 [Example 56, 3-(2-cyanoprop-2-yl)-N-(4-methyl-3-(4-(4-((tetrahydro-2H-pyran-4-yl)oxy)pyrid-3-yl)-1H-pyrazol-1-yl)phenyl)benzamide] | 4100 |
| 100 | 34 | 5.6 | – | – | Cc1ccc(NC(=O)c2cccc(C(C)(C)C#N)c2)cc1-n1cc(-c2cnccc2OCC2CCOCC2)cn1 [Example 72, 3-(2-cyanoprop-2-yl)-N-(4-methyl-3-(4-(4-((tetrahydro-2H-pyran-4-yl)methoxy)pyrid-3-yl)-1H-pyrazol-1-yl)phenyl)benzamide] | 5800 |
| 66 | 27 | 4.3 | – | – | Cc1ccc(NC(=O)c2cccc(C(C)(C)C#N)c2)cc1-n1cc(-c2cnccc2OC2CCOC2)cn1 (stereo not drawn) [Example 68, 3-(2-cyanoprop-2-yl)-N-(4-methyl-3-(4-(4-((tetrahydrofuran-3-yl)oxy)pyrid-3-yl)-1H-pyrazol-1-yl)phenyl)benzamide] | 1800 |
| 57 | 61 | < 0.3 | – | – | Cc1ccc(NC(=O)c2cccc(C(C)(C)C#N)c2)cc1-n1cc(-c2cnccc2OC2COC2)cn1 [Example 79, 3-(2-cyanoprop-2-yl)-N-(4-methyl-3-(4-(4-(oxetan-3-yloxy)pyrid-3-yl)-1H-pyrazol-1-yl)phenyl)benzamide] | 4800 |
| 56 | 79 | 28 | – | – | Cc1ccc(NC(=O)Cc2cccc(C(F)(F)F)c2)cc1-n1cc(-c2cncc(-c3ccncc3)c2)cn1 [Example 71, N-(3-(4-([3,4′-bipyrid]-5-yl)-1H-pyrazol-1-yl)-4-methylphenyl)-2-(3-(trifluoromethyl)phenyl)acetamide] | 1100 |
| 45 | 97 | 7.4 | – | – | Cc1ccc(NC(=O)c2ccc(CN3CCN(C)CC3)c(C(F)(F)F)c2)cc1-n1cc(-c2cncc(N3CCOCC3)c2)cn1 [Example 12, N-(4-methyl-3-(4-(5-morpholinopyrid-3-yl)-1H-pyrazol-1-yl)phenyl)-4-((4-methylpiperazin-1-yl)methyl)-3-(trifluoromethyl)benzamide] | 210 |
| 39 | 32 | 3.9 | 61 | 11 | Cc1ccc(NC(=O)c2cccc(C(F)(F)F)c2)cc1-n1cc(-c2cnccc2OCCCO)cn1 [Example 162, N-(3-(4-(4-(3-hydoxypropoxy)pyrid-3-yl)-1H-pyrazol-1-yl)-4-methylphenyl)-3-(trifluoromethyl)benzamide] | 5000 |
| 36 | 22 | 6.6 | 160 | 23 | COCCOc1ccncc1-c1cnn(-c2cc(NC(=O)c3cccc(C(C)(C)C#N)c3)ccc2C)c1 [Example 159, 3-(2-cyanoprop-2-yl)-N-(3-(4-(4-(2-methoxyethoxy)pyrid-3-yl)-1H-pyrazol-1-yl)-4-methylphenyl)benzamide] | 5200 |
| 35 | 16 | 1.3 | – | – | Cc1ccc(NC(=O)c2cccc(C(C)(C)C#N)c2)cc1-n1cc(-c2cncc(OCC3CCOC3)c2)cn1 (stereo not drawn) [Example 65, 3-(2-cyanoprop-2-yl)-N-(4-methyl-3-(4-(5-((tetrahydrofuran-3-yl)methoxy)pyrid-3-yl)-1H-pyrazol-1-yl)phenyl)benzamide] | 1700 |
| 28 | 27 | 10 | – | – | Cc1ccc(NC(=O)c2ccc(CN3CCN(C)CC3)c(C(F)(F)F)c2)cc1-n1cc(-c2cncc(-c3ccncc3)c2)cn1 [Example 8, N-(3-(4-([3,4′-bipyridyl]-5-yl)-1H-pyrazol-1-yl)-4-methylphenyl)-4-((4-methylpiperazin-1-yl)methyl)-3-(trifluoromethyl)benzamide] | 310 |
